# Data taken from patent US20070026080A1, “Manufacturing process for tigecycline” (Wyeth, priority 2005, published 2007).
# Assay: Strength and degradation profile of tigecycline 20 mg/mL bulk solutions by reversed phase HPLC (effect of temperature, time, pH, dissolved oxygen; Runs A to O)
# Format: physicochemical
# Details: 20 mg/mL
# Description: The contents of the sample vials are dissolved in diluent. The sample solution is diluted, if necessary, and chromatographed on a reversed phase column using gradient elution. Impurities are determined by comparing the impurity peak areas in the sample preparation chromatogram to the average area of tigecycline peaks in the standard preparation chromatograms obtained concomitantly.
# Chromatographic Column—Length about 15 cm, inside diameter about 4.6 mm, packed with Inertsil ODS2, 5 μm size particles or equivalent.
# Detector—Ultraviolet spectrophotometric detector capable of operating at 248 nm with a sensitivity of about 0.5 absorbance units full scale.
# The results of additional studies to investigate the effect of processing parameters such as temperature, time, and dissolved oxygen content on the purity profile of tigecycline solutions using the following materials, methods and procedures are presented in Tables A to O.
# The experiments were run in plastic glove bags under normal laboratory light conditions. Plastic glove boxes will be used to control the headspace of the beakers. The batch size was 200 mL. • 1. Prepare the glove bag with a mixture of nitrogen and air to achieve an oxygen level in the solution as per the design. • 2. Place the jacketed beaker on the magnetic stirrer. Connect it to the cooler. Set the cooler to the desired set point. • 3. Add 200 mL of SWFI in to the beaker. Allow equilibrating. Measure the temperature and oxygen content. When it reaches the desired condition, add accurately weighed API and mix until dissolved. If necessary use spatula to aid dissolution. For pH adjustments, use 4 mL of either 0.1N NaOH or 0.1N HCl and 196 mL of WFI for manufacture. • 4. After complete dissolution, Transfer about 5.5 mL of Solution in vials and stopper them. These vials will be stoppered at the appropriate headspace conditions. Place the vials in appropriate temperature conditions. • 5. Sample the vials at 1, 4, 8, 10, 12 and 24 hours. Send the samples for analysis. Freeze the 10, 12 and 24 samples at −20° C. for analysis the following day. • 6. Measure pH and record color of the solution at each time point. Results
# The 1-hour samples were taken directly from the beakers. Samples for later time points were collected in stoppered vials processed in the atmosphere of the bag in order to simulate the headspace conditions then placed in water baths or refrigerator to maintain there respective temperature conditions. This was done to maintain safety in the lab. Disposable plastic glove bags require constant flow of a mixture of nitrogen and air to maintain headspace oxygen level that will result in the desired dissolved oxygen (DO) content in the sample. The pH of samples was measured at each sample points.
# Strength and degradation profile was analyzed by HPLC as described above. […] Degradation was slightly higher at higher temperature condition.
# [1] = Run #F, 2° C., hours 1,4,8,12,24 at r5-r9, 8 h after preparation
# [2] = Run #F, 2° C., hours 1,4,8,12,24 at r5-r9, 12 h after preparation
# [3] = Run #F, 2° C., hours 1,4,8,12,24 at r5-r9, 24 h after preparation
# [4] = Run #G, 5° C., hours 1,4,8,12,24 at r6-r10, after 4 hours
# [5] = Run #G, 5° C., hours 1,4,8,12,24 at r6-r10, after 24 hours
# [6] = Run #G, 5° C., hours 1,4,8,12,24 at r16-r20, after 1 hours
# [7] = Run #G, 5° C., hours 1,4,8,12,24 at r16-r20, after 4 hours
# [8] = Run #G, 5° C., hours 1,4,8,12,24 at r16-r20, after 8 hours
# [9] = Run #G, 5° C., hours 1,4,8,12,24 at r16-r20, after 12 hours
# [10] = Run #G, 5° C., hours 1,4,8,12,24 at r16-r20, after 24 hours
# [11] = Run #H, 5° C., pH 7.9, Oxygen 1.0 mg/L, hours 1,4,8,10,12,24 at r6-r11
# [12] = Run #H, 5° C., pH 7.9, Oxygen 1.0 mg/L, hours 1,4,8,10,12,24 at r6-r11, 1 h
# [13] = Run #H, 5° C., pH 7.9, Oxygen 1.0 mg/L, hours 1,4,8,10,12,24 at r6-r11, 4 h
# [14] = Run #H, 5° C., pH 7.9, Oxygen 1.0 mg/L, hours 1,4,8,10,12,24 at r6-r11, 10 h
# [15] = Run #H, 5° C., pH 7.9, Oxygen 1.0 mg/L, hours 1,4,8,10,12,24 at r6-r11, 12 h
# [16] = Run #H, 5° C., pH 7.9, Oxygen 1.0 mg/L, hours 1,4,8,10,12,24 at r6-r11, 24 h
# [17] = Run #H, 5° C., pH 7.9, Oxygen 1.0 mg/L, hours 1,4,8,10,12,24 at r17-r22, 1 h
# [18] = Run #H, 5° C., pH 7.9, Oxygen 1.0 mg/L, hours 1,4,8,10,12,24 at r17-r22, 4 h
# [19] = Run #H, 5° C., pH 7.9, Oxygen 1.0 mg/L, hours 1,4,8,10,12,24 at r17-r22, 8 h
# [20] = Run #H, 5° C., pH 7.9, Oxygen 1.0 mg/L, hours 1,4,8,10,12,24 at r17-r22, 10 h
# [21] = Run #H, 5° C., pH 7.9, Oxygen 1.0 mg/L, hours 1,4,8,10,12,24 at r17-r22, 12 h
# [22] = Run #H, 5° C., pH 7.9, Oxygen 1.0 mg/L, hours 1,4,8,10,12,24 at r17-r22, 24 h
# [23] = Run #I, 5° C., pH 7.9, Oxygen 1.0 mg/L, hours 1,4,8,10,12,24 at r6-r11, 1 h
# [24] = Run #I, 5° C., pH 7.9, Oxygen 1.0 mg/L, hours 1,4,8,10,12,24 at r6-r11, 4 h
# [25] = Run #I, 5° C., pH 7.9, Oxygen 1.0 mg/L, hours 1,4,8,10,12,24 at r6-r11, 8 h
# [26] = Run #I, 5° C., pH 7.9, Oxygen 1.0 mg/L, hours 1,4,8,10,12,24 at r6-r11, 10 h
# [27] = Run #I, 5° C., pH 7.9, Oxygen 1.0 mg/L, hours 1,4,8,10,12,24 at r6-r11, 12 h
smiles,measurement,setting,value
CN(C)c1cc(NC(=O)CNC(C)(C)C)c(O)c2c1C[C@H]1C[C@H]3[C@H](N(C)C)C(O)=C(C(N)=O)C(=O)[C@@]3(O)C(O)=C1C2=O [Tigecycline],RRT 1.45,[1],0.09%
same,RRT 1.85 MW = 597,[1],0.08%
same,Total,[1],1.00%
same,RRT 0.74 Epimer,[2],0.18%
same,RRT 1.45,[2],0.08%
same,Total,[2],1.07%
same,RRT 0.74 Epimer,[3],0.19%
same,Total,[3],1.43%
same,Strength,"Run #G, 5° C., Oxygen = 1.0 mg/mL, hours 1,4,8,12,24 at r6-r10, after 1 hours",18.577 mg/mL
same,Strength,"Run #G, 5° C., Oxygen = 1.0 mg/mL, hours 1,4,8,12,24 at r6-r10, after 4 hours",18.694 mg/mL
same,Strength,"Run #G, 5° C., Oxygen = 1.0 mg/mL, hours 1,4,8,12,24 at r6-r10, after 8 hours",18.487 mg/mL
same,Strength,"Run #G, 5° C., Oxygen = 1.0 mg/mL, hours 1,4,8,12,24 at r6-r10, after 12 hours",18.507 mg/mL
same,Strength,"Run #G, 5° C., Oxygen = 1.0 mg/mL, hours 1,4,8,12,24 at r6-r10, after 24 hours",18.587 mg/mL
same,RRT 1.67 MW = 556,"Run #G, 5° C., Oxygen = 1.0 mg/mL, hours 1,4,8,12,24 at r16-r20, after 1 hours",0.08%
same,RRT 1.67 MW = 556,"Run #G, 5° C., Oxygen = 1.0 mg/mL, hours 1,4,8,12,24 at r16-r20, after 4 hours",0.14%
same,RRT 1.67 MW = 556,"Run #G, 5° C., Oxygen = 1.0 mg/mL, hours 1,4,8,12,24 at r16-r20, after 8 hours",0.17%
same,RRT 1.67 MW = 556,"Run #G, 5° C., Oxygen = 1.0 mg/mL, hours 1,4,8,12,24 at r16-r20, after 12 hours",0.20%
same,RRT 1.67 MW = 556,"Run #G, 5° C., Oxygen = 1.0 mg/mL, hours 1,4,8,12,24 at r16-r20, after 24 hours",0.23%
same,RRT 0.74 Epimer,"Run #G, 5° C., hours 1,4,8,12,24 at r6-r10, after 1 hours",0.16%
same,RRT 0.58,[4],0.07%
same,RRT 0.74 Epimer,[4],0.17%
same,RRT 0.74 Epimer,"Run #G, 5° C., hours 1,4,8,12,24 at r6-r10, after 8 hours",0.18%
same,RRT 0.74 Epimer,"Run #G, 5° C., hours 1,4,8,12,24 at r6-r10, after 12 hours",0.20%
same,RRT 0.58,[5],0.08%
same,RRT 0.74 Epimer,[5],0.21%
same,RRT 1.45,[6],0.08%
same,RRT 1.64 Mino,[6],0.11%
same,RRT 1.85 MW = 597,[6],0.08%
same,Total,[6],0.58%
same,RRT 1.64 Mino,[7],0.07%
same,Total,[7],0.78%
same,RRT 1.45,[8],0.07%
same,RRT 1.85 MW = 597,[8],0.09%
same,Total,[8],1.12%
same,RRT 1.45,[9],0.09%
same,Total,[9],1.34%
same,RRT 1.85 MW = 597,[10],0.10%
same,Total,[10],2.09%
same,RRT 0.58,[11],0.09%
same,RRT 0.64 9-Amino,[11],BRL (BRL means below reporting limit (meaning less than 0.05% of tigecycline peak))
same,RRT 0.74 Epimer,[12],0.19%
same,Strength,[12],19.457 mg/mL
same,RRT 0.74 Epimer,[13],0.20%
same,Strength,[13],19.441 mg/mL
same,Strength,"Run #H, 5° C., pH 7.9, Oxygen 1.0 mg/L, hours 1,4,8,10,12,24 at r6-r11, 8 h",19.361 mg/mL
same,RRT 0.74 Epimer,[14],0.25%
same,Strength,[14],19.447 mg/mL
same,RRT 0.74 Epimer,[15],0.27%
same,Strength,[15],20.119 mg/mL
same,RRT 0.74 Epimer,[16],0.23%
same,Strength,[16],19.319 mg/mL
same,RRT 0.78 MW = 557,"Run #H, 5° C., pH 7.9, Oxygen 1.0 mg/L, hours 1,4,8,10,12,24 at r17-r22",BRL (BRL means below reporting limit (meaning less than 0.05% of tigecycline peak))
same,RRT 1.45,[17],0.09%
same,RRT 1.64 Mino,[17],0.12%
same,RRT 1.85 MW = 597,[17],0.07%
same,Total,[17],0.60%
same,RRT 1.45,[18],0.07%
same,RRT 1.64 Mino,[18],0.09%
same,RRT 1.85 MW = 597,[18],0.08%
same,Total,[18],0.70%
same,RRT 1.64 Mino,[19],0.10%
same,Total,[19],0.66%
same,RRT 1.64 Mino,[20],0.11%
same,Total,[20],0.90%
same,RRT 1.85 MW = 597,[21],0.09%
same,Total,[21],0.87%
same,RRT 1.45,[22],0.05%
same,RRT 1.64 Mino,[22],0.15%
same,RRT 1.85 MW = 597,[22],0.10%
same,Total,[22],1.03%
same,RRT 0.64 9-Amino,"Run #I, 5° C., pH 7.9, Oxygen 1.0 mg/L, hours 1,4,8,10,12,24 at r6-r11",BRL (BRL means below reporting limit (meaning less than 0.05% of tigecycline peak))
same,RRT 0.58,[23],0.08%
same,RRT 0.74 Epimer,[23],0.19%
same,Strength,[23],19.263 mg/mL
same,RRT 0.58,[24],0.09%
same,RRT 0.74 Epimer,[24],0.21%
same,Strength,[24],19.361 mg/mL
same,RRT 0.58,[25],0.06%
same,RRT 0.74 Epimer,[25],0.18%
same,Strength,[25],19.131 mg/mL
same,RRT 0.74 Epimer,[26],0.29%
same,Strength,[26],19.204 mg/mL
same,RRT 0.58,[27],0.07%
same,RRT 0.74 Epimer,[27],0.26%
